Consider 10 compounds from patent publication US7683031B2, “Short peptides from the ‘2nd loop’ of 7 transmembrane receptor which selectively modulate signal transduction” (Yissum Research Development Company of the Hebrew …, priority 2002, dated 2010).

pEC50: −log10 of the molar value.

The subject of one test is aortic ring. As to the kind of experiment: Aortic ring assay (capillary growth ex vivo in collagen matrix gel). It counts as cell-based, rat. Conditions: for aortic ring neovascularization in presence of G-protein inhibitor PTX / aortic ring neovascularization: S1P 100 μm, R002L103 20 μm, FIG. 4; for aortic ring neovascularization in presence of G-protein inhibitor PTX: PTX 100 nm/ml; for aortic ring neovascularization: without PTX; for neovascularization effect, each agent alone / angiogenetic effect, each agent alone: R002L103 20 μg; for angiogenetic effect, each agent alone: VEGF 12 nm/ml. The procedure: The following are suitable in vivo or ex vivo modes for angiogenesis: • (1) Aortic ring—where sprouting of newly formed blood vessels is tested whole mounts of aortic rings obtained from rats (see below) • (2) Eye assay—where formation of new blood vessels in the cornea of the animal as a response to an FGF-implanted pellet is determined (see below). • (3) Sponge assay—where infiltration of new blood vessels into a sponge implanted s.c. in an experimental animal is determined (see below) • (4) Regression of pre-formed vasculature in tumors (Benjamin L. E. and Kesshet E. PNAS, 94, 8761-8766, (1997)). • (5) Re-establishment of circulation in dissected vessels in the limbs of experimental animals. Experimental Procedures: 1. Aortic Ring-Assay:
The modification of previously described assay (Nicosia, R. F. and Ottinetti, A. “Growth of microvessels in serum-free matrix culture of rat aorta.” Lab. Invest. 63:115-122. 1990) for capillary growth ex vivo was used. The assay is based on the phenomenon of endothelial cells proliferation from freshly prepared aorta placed into collagen matrix gel, that finally formed new capillary system.
The experiments were carried out on two lines of animals—Sabra and Sprague-Dawley rats, males of 200-250 g-body weight (1-2 month old). Rats were acclimated to vivarium for 4-10 days before their use in study protocol. Each group (from 2 to 4) of the animals was housed in separate cage and fed food and water ad libitum.
Animals were sacrificed by decapitation after ether anesthesia Thoracic aortas were dissected and immediately transferred to a Petri dish with bio-mpm-1. The fibroadipose tissue and small vessels around aorta was carefully removed under a dissecting microscope, 1 mm-long aortic rings were sectioned and extensively (2-3 times) rinsed in bio-mpm-1 containing antibiotics (% cat.) (Nicosia and Ottinetti, 1990).
The collagen matrix gel solution (see above) was added to 24-well plate (0.4 ml to each well) and collagen polymerization was allowed for 15 min at 37° C. The aorta rings were transferred to the collagen gel solution (in order to glue them to the bottom layer of the gel) and then placed to the center of each well. In mice, 3 rings are embedded in the same well. After 15 min incubation of the plates at 37° C. another 0.4 ml of the collagen solution was carefully added on the top of the ring. After the gel is formed 0.4 ml of Serum-Free Endothelial Growth Medium (Rhenium, cat. 17601-030) or bio-mpm-1 (Beit Haemeq cat. 05-060-1) was added to each well. Rings were incubated in 37° c. and 10% CO2. Medium is replaced every 2-3 days.
Compound of the invention were added next day after collagen gel formation in concentration 10-20 uM. compounds were dissolved for 10 mM stock in 100% DMSO. Dilution in 0.1% BSA in PBS to 400 uM stock were done for each AR experiment de novo. The compounds were re-added to AR during each medium changing till well developed capillary system in control or experimental wells.
Fixation was carried out by adding of Buffered Formalin 4% (was obtained from BioLab, cat. 66554) 1.5 ml in each well. An hour later solution was changed to fresh Formalin in order to better fixation (overnight).
We used Crystal Violett (Gencian Violett) 0.02% in Ethanol Abs. as staining solution (1 ml for each well overnight at room temperature). After staining, wells were washed massively with 0.02% Sodium Azide water solution during two or three days till transparent matrix.
Digital pictures were analyzed using ImagePro™ software. The total capillary length of at least 6 AR was measured. Dividing the total capillary length to AD diameter normalized the data.

Test [1] relates to B16 cells. As to the kind of experiment: Melanogenesis in B16 cells (melanin, absorbance 405 nm). It counts as cell-based. Conditions: tbi formulation; for pEC50: read-out: EC 50 melanogenesis; for melanogenesis induction: β3-derived peptides up to 2.5 μM, FIG. 14-18. The procedure:
(§1) B16 melanocyet cells were grown in DMEM with 4 mM L-glutamine, supplemented with 10% bovine calf serum in a 37° C. humidified incubator with 5% CO2. The day before the assays, 100 μl of 3×10^4 cells/ml were plated in 96-well microtiter plates overnight.
The day after B16 cells culturing, differential concentrations of stimulator (peptides or αMSH as positive control) were added. The cells were incubated for another 3 days then adding 70 ul of 1N NaOH stopped the reaction. The production of melanin was measured after 24 h as the optical absorbance in […].
“tbi” Formulation: peptides (10 mM final) were dissolved in DMSO (final 8%) and 2M Ammonium Bicarbonate (32% final) were added, the mixture was heated for 40 min then 2M HEPES pH 7.5 60% (final) were added.

The test system of a further test is cornea of mice. As to the kind of experiment: Eye assay (neovascularization in the cornea after pellet implantation). The test is classed as in vivo. Conditions: five days after implantation; for blood vessels course of growth: FIG. 10. The procedure: The modification of the assay previously described in “A model of angiogenesis in the mouse cornea” B. M. Kenyon, E. E. Voest, C. C. Chen, E. Flynn J. Folkman and R. J. D'Amato Investigative Ophthalmology & Visual Science, July 1996, Vol. 37, No. 8 1625-1632 was used. The assay is based on the phenomena of formation of new blood vessels in the cornea of mice in response to the implantation in the cornea of a pellet impregnated with FGF.
1. To prepare—Hydron concentrated stock solution (120 mg/ml in ethanol Abs.) • Hydron diluted stock solution (60 mg/ml in ethanol Abs.) • sucralfate stock solution (500 mg/ml in solution S sterile!). • 10 mg peptide.
2. Add 30 μl of solution S to peptide (or 10 μl of solution S and 20 μl of FGF).
3. Add 20 μl of sucralfate stock solution—vortex, speedvac for 5 min (more if needed).
4. Add […] hydron diluted stock solution to sucralfate+FGF+peptide pellet.
Mice were anesthetized with Ketamin/Rompun Solution (for dosage and solutions preparation see standard anesthetic procedure). The eye is topically anesthetized with Localin (Benoxynate HCl 0.4%, Dr. Fisher, Pharmaceutical Labs, P.O.B. 39071, Tel-Aviv 61390). Using a binocular microscope, a central intrastromal linear keratotomy is performed with a surgical blade parallel to the insertion of the lateral rectus muscle. Approximate length of the cut is 0.5-0.6 mm length. The globe is proptosed with a forceps. A lamellar micropocket is dissected toward the temporal limbus using the modified von Graefe knife 2×30 mm. All following procedures must be done without proptosis. A pellet is placed on the corneal surface in the base of the pocket and advanced to the temporal end of the pocket with one arm of the forceps. The distance between pellet and limbal vessel is measured. For FGF containing pellets, the pocket must be extended within 1 mm of the limbus. Antibiotic and antimycotic ointment are applied to the operated eye to prevent infection and additional irritation of the cornea.
Measurements were done at 5th and 7th days after implantation. In the case of high stimulation inspections were done twice a week till full degradation. The maximum vessel length of neovascularization zone, extending from the limbal vessel toward the pellet was measured. The econtiguous circumferential zone of neovascularization was measured as clock hours (where 30° are equals 1 clock hour.)

The subject of test [2] is β2-adrenergic transfected HEK293 cells. As to the kind of experiment: cAMP assay in β2-adrenergic transfected HEK293 cells. The test is classed as cell-based. The following applies: 10 μM peptide, after 1 h, FIG. 11. The procedure:
The HEK293 cells were grown in Dulbecco's Modified Eagle's medium (DMEM) with 4 mM L-glutamine, supplemented with 10% horse serum in a 37° C. humidified incubator with 5% CO2. HEK293 cells were transfected using the fuGENE 6 Transfection Reagent. The following amounts of each expression plasmid were used for transfection of each well in a 6-well culture plate: 3 ug of pBK-flag β2AR; 3 ug of pRK5-GRK2 or in combination of 1.5 ug of pBK-flag β2AR and pRK5-GRK2. Cells were harvested after 24 h and transferred into 96-well culture plate (10^5 cells/ml) and a cAMP assay was carried out 48 h post transfection.
(§2) At the day of the assay medium was replaced with serum free medium containing 0.5 mM 3-isobutyl-methylxanthine and the experimental peptides were added for 60 min. The incubation was stopped by replacing the medium with lysis regent supplied in a commercial cAMP kit.
(§3) cAMP levels were determined using cAMP enzymeimmunoassay (EIA) system Biotra Amersham Pharmacia Biotech.

The next test relates to 3T3L1 adipocytes cells. The test can be described thus: cAMP assay in 3T3L1 adipocytes cells. The test is classed as cell-based. The following applies: FIG. 13. The procedure:
3T3L1 fibroblast were maintained in DMEM with 4 mM L-glutamine, supplemented with 10% calf serum in a 37° C. humidified incubator with 5% CO2. To differentiate fibroblast into adipocytes, cells were grown for 2 days after confluence. The media was then changed to DMEM containing 10% fetal bovine serum; 0.5 mM isobutylmethlxanthine; 4 μg/ml dexamethasone. 3 days later cells were maintained in DMEM containing 10% fetal bovine serum for two weeks, after which the cells were used for cAMP assay.
[…] The incubation was stopped by replacing the medium with lysis regent supplied in a commercial cAMP kit.
as §3

Test [3] has as its system B16 cells. The test can be described thus: cAMP assay in B16 cells. It counts as cell-based. The following applies: 10 μM peptide, after 1 h, FIG. 12. The procedure: as §1, §2, §3

`CCCCCCCCCCCCC/C=C/[C@@H](O)[C@@H](N)COP(=O)(O)O` [S1P, sphingosine-1-phosphate, reference compound]: in the test with aortic ring, the “aortic ring neovascularization in presence of G-protein inhibitor PTX” value is “completely blocked” and the aortic ring neovascularization result is “caused neovascularization”.

For the compound “FGF: pro-angiogenetic compound; bFGF, human recombinant, in materials”, the “neovascularization effect, each agent alone” value (“neovascularization effect” for short) in the test on aortic ring (FGF 10 ng/ml, FIG. 8) is reported as “no effect”.

In the case of “GLLRRHS [K024H107, MC1 receptor Loop 2 derived-modified peptide]”, in the test with B16 cells [1], the pEC50 was 5.70 and the melanogenesis induction result is reported as “very efficient in inducing melanogenesis”.

Turning to “LGLLRRHSI [K024H124, MC1 receptor Loop 2 derived-modified peptide]”, in the test on B16 cells [1], the pEC50 was 6.82 and the melanogenesis induction result is reported as “very efficient in inducing melanogenesis”.

Take “R002L103: peptide based on sequence SEQ ID NO:3 of the 2nd loop of EDG3 (FIG. 1A) (MRPYDANKR)”: in the test on aortic ring (10 μm and 20 μm R002L103, degree at least equal to that of S1P 100 nm, FIG. 3), the “angiogenesis in aortic rings” value is recorded as “increase angiogenesis in a dose dependent manner”. In addition, the capillary length result in the test with aortic ring (20 μm, FIG. 2) is “decreased”; in the test on aortic ring (from control to 10 μm, FIG. 2), “increased”. Besides, the “neovascularization effect” value in the test with aortic ring (FGF 10 ng/ml, FIG. 8) is reported as “no effect”; in the test on aortic ring (SCF 30 nm/ml, FIG. 7) it was “no neovascularization effect”. In addition, in the test with aortic ring (R002L103 20 μg + FGF 10 ng/ml, FIG. 8), the “neovascularization, combination with FGF” value was “very significant neovascularization”. Moreover, the “neovascularization, combination with SCF” value with aortic ring (R002L103 20 μg + SCF 30 nm/ml, FIG. 7) was “marked synergism and significant neovascularization”. Also, the “neovascularization, combination with VEGF” value in the test on aortic ring (R002L103 20 μg + VEGF 12 nm/ml, FIG. 6) was “marked and significant neovascularization”. Moreover, the “aortic ring neovascularization in presence of G-protein inhibitor PTX” value with aortic ring was “completely blocked”. Moreover, the aortic ring neovascularization entry in the test with aortic ring is “caused neovascularization”. Further, the “angiogenetic effect, each agent alone” value with aortic ring (FIG. 6) is given as “hardly any angiogenetic effect”. In the test on aortic ring (various concentrations of R002L103, FIG. 2), the capillary thickness result is recorded as “directly correlated to the concentration”. Besides, the “neovascularization in the eye in response to implantation of a pellet” value in the test on cornea of mice (FIG. 9) is given as “marked neovascularization”. For the same compound, the “number of blood vessels compared to VEGF” value in the test with cornea of mice (FIG. 9) is recorded as “larger number of blood vessels”. Also, in the test on cornea of mice, the “blood vessels course of growth” value is reported as “relatively straight”.

Turning to “R013L101: β3-adrenergic Loop 2 derived peptide (GNPLRYGALVT)”, in the test on B16 cells [1], the melanogenesis induction result is “failed as melanogenesis inducers”. For the same compound, the results for the “cAMP production comparing to the control level” value (in test [2]; in the test with B16 cells [3]) were 140% and 900%, respectively. The “level of cAMP increase” value in the test on 3T3L1 adipocytes cells (after 60 min of incubation) is recorded as 18 fold.

In the case of “R013L102: β3-adrenergic Loop 2 derived peptide (GLRYGALVTK)”, in the test with B16 cells [1], the melanogenesis induction result is “failed as melanogenesis inducers”. In the test with 3T3L1 adipocytes cells (after 120 min of incubation), the “level of cAMP increase” value is given as “did not affect”.

As for “R013L103: β3-adrenergic Loop 2 derived peptide (GPLRYGALVT)”, the melanogenesis induction entry in the test on B16 cells [1] is on record as “failed as melanogenesis inducers”. Moreover, the “cAMP production comparing to the control level” value (in test [2]; in the test on B16 cells [3]) was “did not affect” each time. The “level of cAMP increase” value with 3T3L1 adipocytes cells (after 120 min of incubation) turned out to be 18 fold.

SCF: another pro-angiogenetic compound: the “neovascularization effect” value in the test with aortic ring (SCF 30 nm/ml, FIG. 7) was “no neovascularization effect”.

With VEGF, in the test on aortic ring (FIG. 6), the “angiogenetic effect, each agent alone” value is recorded as “hardly any angiogenetic effect”. Moreover, the “neovascularization in the eye in response to implantation of a pellet” value with cornea of mice (FIG. 9) is listed as “able to induce neovascularization”. Besides, in the test with cornea of mice, the “blood vessels course of growth” value is “more coiled”.
